Test results reported in US20220016200A1, “PHARMACEUTICAL COMPOSITION FOR THE TREATMENT OF CYSTIC FIBROSIS” (GALENUS G.H. AG, priority 2018, published 2022).
Read-outs that look alike come from different tables or passages of the source. Bridge positions count the residues as written; N and C are the ends. Square brackets hold non-standard residues; d marks the D form. Peptide text beside a SMILES is read from it. * marks the point of attachment. Heptanoyl(5-Me) = CCC(C)CCCC(=O)*; Dab = NCC[C@H](N)C(=O)O

How the values were obtained:
A. guillouiae 1285286 = assay: Checkerboard colistin sulphate (CS) plus teicoplanin (TP), MIC/FIC and MBC/FBC; assay type: cell-based, Acinetobacter guillouiae; conditions: Acinetobacter guillouiae, agent alone, CAMHB, 5*10^5 CFU/ml
Experimental: (§1) Checkerboard analysis to determine minimal inhibitory concentration (MIC)/fractional inhibitory concentration (FIC) and minimal […] (MBC)/fractional […] (FBC) values of colistin sulphate (CS) plus teicoplanin (TP) for 6 Gram-negative strains with a bacterial load 5(1-10)*10^5 CFU/ml in a cation-adjusted Mueller-Hinton broth (CAMHB). • a. Antimicrobial stock solutions were prepared using sterile distilled water • b. CS was added along the ordinate; TP was added along the abscissa to 96 well, flat bottom, polystyrene panels with no treatment. Colistin alone was tested in triplicates. • c. Serial 2-fold dilutions starting with 640 μg/ml CS and 640 μg/ml TP were made; 15 μl volume of the serial dilutions were added for each agent to the appropriate wells; final volume at 30 μl • d. For each agent tested alone an additional 15 μl media was added to the well. 30 μl were added in control wells where none of the agent was tested. The negative control well contains 150 μl media without any additions • e. From an overnight bacterial culture in tryptic soy broth, 100 μL was added to 10 mL of fresh tryptic soy broth. This was then incubated at 37° C. for 1.5 hour at 180 rpm. • f. Bacteria in 120 μl CAMHB were added to each well (end concentration 5(1-10)*10^5 CFU/ml) • g. Plates were incubated at 37° C. in an ambient air incubator for 24 h • h. Turbidity at OD600 is determined with a plate photometer • i. By using a one-time inoculator 3 μl from each well of the 96-well plate were transferred to three blood agar plates. The plates were incubated over night at 37° C. in an ambient air incubator • j. MIC values are defined as lowest concentration which restricts bacterial growth to OD600 ≤0.1 • k. MBC values were determined by visual reading the lowest concentration which inhibits 99.9% of the growth of bacteria in the wells • l. Determination of the fractional inhibitory concentration (FIC) index and fractional bactericidal concentration (FBC) index and characterization of antimicrobial interactions was assessed […]
FIC calculation was carried out as: (MIC of drug A, tested in combination)/(MIC of drug A, tested alone)+(MIC of drug B, tested in combination)/(MIC of drug B, tested alone). FBC calculation was carried out just as well […]
(§2) Interactive categories were calculated from checkerboard analysis using MIC results from testing each agent alone and MIC results from the combination wells adjacent to the wells with growth in them […]
b. Indifference; FIC/FBC>0.5 to<4.0 c. Antagonism; FIC/FBC≥4.0 d. A. guillouiae 1285286 (IHMA), colistin resistant

S. maltophilia 1221783 = assay: as above; assay type: cell-based, Stenotrophomonas maltophilia; conditions: agent alone, CAMHB, 5*10^5 CFU/ml
Experimental: as §1, with “MIC values are defined as lowest concentration which restricts bacterial growth to OD600 ≤0.1 • k. MBC values were determined by visual reading the lowest concentration which inhibits 99.9% of the growth of bacteria in the wells • l.” left out
as §2

A. junii 1397597 = assay: Checkerboard fusidic acid (FD) and colistin sulfate (CS), MIC/FIC and MBC/FBC; assay type: cell-based, Acinetobacter junii
Experimental: (§3) Checkerboard assays between fusidic acid (FD) and colistin sulfate (CS) with a bacterial load 5(1-10)*10^5 CFU/ml in cationic adapted Mueller Hinton broth (CAMHB). • a. Antimicrobial stock solutions were prepared using sterile distilled water; • b. CS was added along the ordinate; FD was added along the abscissa to 96 well, flat bottom, polystyrene panels with no treatment. Colistin alone was tested in triplicates; • c. Serial 2-fold dilutions starting with 640 […] CS and 640 μg/ml FD were made; 15 μl volume of the serial dilutions were added for each agent to the appropriate wells—final volume at 30 μl; • d. For each agent tested alone an additional 15 μl media was added to the well. 30 μl were added in control wells where none of the agent was tested. The negative control well contains 150 μl media without any additions; • e. From an overnight bacterial culture in tryptic soy broth, 100 μL was added to 10 mL of fresh tryptic soy broth. This was then incubated at 37° C. for 1.5 hour at 180 rpm; • f. Bacteria in 120 μl CAMHB were added to each well (end concentration 5(1-10)*10^5 CFU/ml); • g. Plates were incubated at 37° C. in an ambient air incubator for 24 h • h. Turbidity at OD600 is determined with a plate photometer • i. By using a one-time inoculator 3 μl from each well of the 96-well plate were transferred to three blood agar plates. The plates were incubated over night at 37° C. in an ambient air incubator; • j. MIC values are defined as lowest concentration which restricts bacterial growth to OD600≤0.1; • k. MBC values were determined by visual reading the lowest concentration which inhibits 99.9% of the growth of bacteria in the wells; • l. Determination of the fractional inhibitory concentration (FIC) index and fractional bactericidal concentration (FBC) index and characterization of antimicrobial interactions was assessed;
(§4) FIC calculation was carried out as: (MIC of drug A, tested in combination)/(MIC of drug A, tested alone)+(MIC of drug B, tested in combination)/(MIC of drug B, tested alone). FBC calculation was carried out just as well;
(§5) Interactive categories were calculated from checkerboard analysis using MIC results from testing each agent alone and MIC results from the combination wells adjacent to the wells with growth in them.
(§6) Determination of the fractional inhibitory concentration (FIC) index and fractional bactericidal concentration (FBC) index and characterization of antimicrobial interactions was assessed:
(§7) (ii) Indifference; FIC/FBC>0.5 to <4.0
(§8) (iii) Antagonism; FIC/FBC≥4.0
a. Acinetobacter junii 1391597 (IHMA), colistin resistant (CS 2/2-2/8)

A. haemolyticus 1655843 = assay: as above; assay type: cell-based, Acinetobacter haemolyticus; conditions: agent alone, CAMHB, 1*10^6 CFU/ml
Experimental: as §3, §4, §5, §6, §7, §8
c. Acinetobacter haemolyticus 1655843 (IHMA), colistin resistant (3xCS>16/>16-64/>64)

SMILES: CCC(C)CCCC(=O)N[C@@H](CCN)C(=O)N[C@H](C(=O)N[C@@H](CCN)C(=O)N[C@H]1CCNC(=O)[C@H]([C@@H](C)O)NC(=O)[C@H](CCN)NC(=O)[C@H](CCN)NC(=O)[C@H](CC(C)C)NC(=O)[C@@H](CC(C)C)NC(=O)[C@H](CCN)NC1=O)[C@@H](C)O (stereo partly drawn) [CS, colistin sulphate] ({Heptanoyl(5-Me)}-[Dab]T[Dab][Dab][Dab][dL]L[Dab][Dab]T; lactam 4-C)
- MBC (A. guillouiae 1285286; 1285286, A. guillouiae, read-out: MBC): 4 µg/mL
- MIC (A. guillouiae 1285286; A. guillouiae 1285286, 24 h, read-out: MIC): 2 µg/mL
- MIC (S. maltophilia 1221783; Stenotrophomonas maltophilia, 1221783, 24 h, read-out: MIC): ≤ 0.5 µg/mL
- MIC (S. maltophilia 1221783; 24 h): 0.25 µg/mL
- MIC (A. junii 1397597; A. junii 1397597, agent alone, CAMHB, 1*10^6 CFU/ml, 24 h): 2 mg/1l
- MBC (A. junii 1397597; Acinetobacter junii, 1397597, A. junii 1397597, agent alone, CAMHB, 1*10^6 CFU/ml): 2 µg/mL
- MIC (A. junii 1397597; Acinetobacter junii, 1397597, organism list of Example 3, repeated determinations, read-out: Colistin CS MIC): 2 µg/mL
- MIC (A. haemolyticus 1655843; A. haemolyticus 1655843, 24 h): 64 mg/1l
- MBC (A. haemolyticus 1655843; Acinetobacter haemolyticus, 1655843, A. haemolyticus 1655843): > 64 µg/mL
